Legend:
Format in all cases: in vivo
[1] = test system: Tobacco budworm (Heliothis virescens) larvae; experiment: Tobacco budworm (Heliothis virescens) larvae, diet test, morphogenetic scoring; details: for ID50: Heliothis virescens unfed first instar larvae, compound mixed in diet, 25°, 16 hr photophase; for Heliothis ID50: Table 1 summary, in diet
Experimental: Tobacco budworm (Heliothis virescens) larvae were reared in mass culture on a modified Van der Zandt artificial diet based on agar, lima beans, split peas, torula yeast plus vitamins, minerals and bacteriostatic additives. Compounds to be tested were mixed as acetone solutions with this diet while it was still warm and not yet solidified (7.5 ml. of medium in 15 ml. tubes). Unfed first instar larvae were collected from the mass rearing and distributed in the glass tubes (one larva per tube, 15 tubes per dose level). The tubes with larvae were then capped with a firm cotton plug and placed on racks in a culture room at 25° and 16 hr photophase (low intensity fluorescent light). The normal interval until pupation under these conditions was ca. 16 days.
Individual specimens were preserved in ethanol within a few days after pupation and stored until the entire series was thus preserved. The test results were then evaluated with the following scoring system: 0= normal pupa; 1=pupa of normal shape and appearance except for very minor abnormalities such as minute rudiments of larval mouthparts, larval tubercles, etc. The ultimate viability of these pupa was not investigated; 2=unviable intermediates between larvae and pupae ranging from almost perfect supernumerary larval instars (frequently with some pupal cuticle on the antennae only) to pupae with pronounced prolegs, patches of larval cuticle, etc. […] The results were added and expressed as a percentage of the possible total. ID50 doses were determined by interpolation on semilogarithmic paper. Dead larvae were generally excluded from the score, unless death was obviously a consequence of morphogenetic abnormalities and the specimens could be scored as above.

[2] = test system: Philosamia cynthia eggs; experiment: Philosamia cynthia eggs, hatch prevention; details: Table 1 summary
Experimental: Philosamia cynthia eggs less than 24-hours old were removed from the colony and placed on black electrical tape, 15 eggs per tape. One microliter of acetone solution containing […] of compound was applied to each egg. The control eggs were treated only with acetone. The eggs were kept at 28°C for 10 days at which time the number of eggs hatched was observed and plotted against the dosed on semilogarithmic paper. The ID50 dose is taken from the intersection of this plotted line with the 50% hatch prevented line.

[3] = test system: Greater Wax Moth (Galleria mellonella) pupae; experiment: Greater Wax Moth (Galleria mellonella) pupae, retention of pupal characters (graded-response score); details: for ID50: Galleria mellonella pupae <24 h old, 1 μl acetone solution applied to mouth-parts, scored after 10 days at 31°, 50% effect level; for Galleria ID50: Table 1 summary
Experimental: Greater Wax Moth (Galleria mellonella) pupae less than 24-hours old were collected after mature larvae from a mass colony were allowed to pupate in glass tubes treated with Siliclad solution (modification of a technique described by De Wilde et al., 1968) and then freed of the cocoon with a dilute Chlorox solution. Starvation of mature larvae was employed to produce highly synchronous pupation. One microliter of acetone solution containing 100, 10, 1, 0.1, 0.01, or 0.001μg of compound was applied to the mouth-parts of each test pupa. In each test series, the control pupae were treated only with 1 microliter of acetone. Treated pupae were allowed to develop for 10 days at 31° and then scored for both retention of pupal characters and adult emergence. For the retention of pupal characters, the following scoring system was used: 0=normal adult; 1=minor pupal rudimentary mandibles only; 2=as in 1, but also pupal cuticle patches at the base of the proboscis; 3=extensive pupal cuticle formation at base of proboscis, slight pupal characters in intersegmental membranes in legs; 4=proboscis entirely pupal, larger than normal, legs with extensive pupal zones; 5=merging pupal bands on legs, specimen with only a few adult setae, essentially "a second pupa."
The graded-response score was calculated as a percentage of the maximum attainable (n×5) and plotted against the dose on semilogarithmic paper. The ID50 dose is taken from the intersection of this plotted line with the 50% effect level.

SMILES	ID50 [1] [parts per million]	Heliothis ID50 [1] [ppm]	Cynthia ID50 [2] [μg/egg]	ID50 [3] [μg per pupa]	Galleria ID50 [3] [μg/pupa]
CCOC(=O)C=C(C)C=CCC(C)CCC(OC)C(C)C (stereo not shown) [ethyl 10-methoxy-3,7,11-trimethyldodeca-2,4-dienoate]	0.024	0.024	0.000032	0.0030	0.0030
CCOC(=O)C=C(C)C=CCC(C)CCCC(C)(C)OC (stereo not shown) [ethyl 11-methoxy-3,7,11-trimethyldodeca-2,4-dienoate]	0.340	0.340	0.00077	0.180	0.180

— patent US3969385A, “Ethyl 10-methoxy-3,7,11-trimethyldodeca-2,4-dienoate” (Zoecon Corporation, priority 1974, dated 1976)
